Patent US20250270191A1, “QUINOLONE BCL6 BIFUNCTIONAL DEGRADERS” (Treeline Biosciences, Inc., priority 2022, published 2025)

Target: T1, Human BCL6 protein (N-terminal HiBiT tagged BCL6 in HT1080 cells) (Homo sapiens, UniProt P41182+Q96SW2)
T1 construct: Human BCL6 protein coding open reading frame; expressed in transfected cells; host or cells: HT1080 (ATCC CCL-121), stably transduced with lentivirus pLV-UBC-N-HiBiT-BCL6-PGK-puro
Assay: HiBiT based BCL6 degradation assay
Assay type: cell-based
Settings: HT1080 cells expressing N-terminal HiBiT tagged BCL6; 5 hours incubation; BCL6 degradation normalized with DMSO control
From the text: Human BCL6 protein coding open reading frame fused with N-terminal HiBiT coding sequence was synthesized from Integrated DNA Technologies (IDT). Next, the N-HiBiT-BCL6 sequence was cloned into pLV-UBC-PGK-Puro, a lentivirus plasmid purchased from Vectorbuilder, to generate pLV-UBC-N-HiBiT-BCL6-PGK-puro. Lentiviral particles were generated from Lenti-X™ 293T cells (Clontech) by co-transfection of pLV-UBC-N-HiBiT-BCL6-PGK-puro plasmids and lentiviral packaging plasmid mix (Cellecta). HT1080 [HT1080] (ATCC CCL-121) cells were infected with the lentivirus, and HT1080 cells stably integrated with the lentiviral vectors were established by incubation with 1 μg/mL puromycin (Thermofisher).
HT1080 cells expressing N-terminal HiBiT tagged BCL6 were dispensed into a 384-well plate pre-spotted with compounds at varying concentrations. Five thousand cells were seeded into each well in 40 μL of RPMI 1640 media plus 10% Fetal Bovine Serum (10082-147, Thermofisher). After 5 hours of incubation at 37° C. with 5% CO2, 30 μL of the NANO-GLO® HiBiT Lytic Detection System working solution (Promega) was added to each well and incubated at room temperature for 15 min. After incubation, luminescence was read on a PHERAstar FSX Plate Reader (BMG). BCL6 degradation at each indicated concentration was normalized with DMSO control. The BCL6 degradation curves were plotted using a four-parameter logistic model.

Row | SMILES | Ymin (5 hr)
1 | CNC(=O)COc1cc2cc(Nc3nc(N4CCN([C@@H](C)C5CCN(c6cccc7c(C8CCC(=O)NC8=O)nn(C)c67)CC5)CC4)ncc3Cl)ccc2n(C)c1=O (single isomer, unassigned) [Compound 307a] | ++++ (Ymin ≤ 25%)
2 | CNC(=O)COc1cc2cc(Nc3nc(N4CCN(CC5CCC6(CC5)CN(c5ccc7c(C8CCC(=O)NC8=O)nn(C)c7c5)C6)CC4)ncc3Cl)ccc2n(C)c1=O (centres unmarked) [Compound 103, 2-((6-((5-chloro-2-(4-((2-(3-(2,6-dioxopiperidin-3-yl)-1-methyl-1H-indazol-6-yl)-2-azaspiro[3.5]nonan-7-yl)methyl)piperazin-1-yl)pyrimidin-4-yl)amino)-1-methyl-2-oxo-1,2-dihydroquinolin-3-yl)oxy)-N-methylacetamide] | ++++ (Ymin ≤ 25%)
3 | CNC(=O)COc1cc2cc(Nc3nc(N4CCN(CC5CCC6(CC5)CN(c5cccc7c(C8CCC(=O)NC8=O)nn(C)c57)C6)CC4)ncc3Cl)ccc2n(C)c1=O (centres unmarked) [Compound 104, 2-((6-((5-chloro-2-(4-((2-(3-(2,6-dioxopiperidin-3-yl)-1-methyl-1H-indazol-7-yl)-2-azaspiro[3.5]nonan-7-yl)methyl)piperazin-1-yl)pyrimidin-4-yl)amino)-1-methyl-2-oxo-1,2-dihydroquinolin-3-yl)oxy)-N-methylacetamide] | +++ (25% < Ymin ≤ 50%)
4 | CNC(=O)COc1cc2cc(Nc3nc(N4CCC(CNC(=O)c5cccc(C6CCC(=O)NC6=O)c5)CC4)ncc3Cl)ccc2n(C)c1=O (centres unmarked) [Compound 105, N-((1-(5-chloro-4-((1-methyl-3-(2-(methylamino)-2-oxoethoxy)-2-oxo-1,2-dihydroquinolin-6-yl)amino)pyrimidin-2-yl)piperidin-4-yl)methyl)-3-(2,6-dioxopiperidin-3-yl)benzamide] | ++ (50% < Ymin ≤ 70%)
5 | CNC(=O)COc1cc2cc(Nc3nc(N4CCN(CC5CCN(c6cccc7c(C8CCC(=O)NC8=O)nn(C)c67)CC5)CC4)ncc3Cl)ccc2n(C(C)C)c1=O (centres unmarked) [Compound 107, 2-((6-((5-chloro-2-(4-((1-(3-(2,6-dioxopiperidin-3-yl)-1-methyl-1H-indazol-7-yl)piperidin-4-yl)methyl)piperazin-1-yl)pyrimidin-4-yl)amino)-1-isopropyl-2-oxo-1,2-dihydroquinolin-3-yl)oxy)-N-methylacetamide] | ++++ (Ymin ≤ 25%)
6 | CNC(=O)COc1cc2cc(Nc3nc(N4CCN(CC5CCN(c6ccc7c(C8CCC(=O)NC8=O)nn(C)c7c6)CC5)CC4)ncc3Cl)ccc2n(C(C)C)c1=O (centres unmarked) [Compound 108, 2-((6-((5-chloro-2-(4-((1-(3-(2,6-dioxopiperidin-3-yl)-1-methyl-1H-indazol-6-yl)piperidin-4-yl)methyl)piperazin-1-yl)pyrimidin-4-yl)amino)-1-isopropyl-2-oxo-1,2-dihydroquinolin-3-yl)oxy)-N-methylacetamide] | +++ (25% < Ymin ≤ 50%)
7 | CNC(=O)COc1cc2cc(Nc3nc(N4CCC[C@@H]4CNc4cccc(C5CCC(=O)NC5=O)c4)ncc3Cl)ccc2n(C)c1=O (stereo partly drawn) [Compound 260a, 2-((6-((5-chloro-2-((2R)-2-(((3-(2,6-dioxopiperidin-3-yl)phenyl)amino)methyl)pyrrolidin-1-yl)pyrimidin-4-yl)amino)-1-methyl-2-oxo-1,2-dihydroquinolin-3-yl)oxy)-N-methylacetamide] | ++ (50% < Ymin ≤ 70%)
8 | CNC(=O)COc1cc2cc(Nc3nc(N4CCC[C@H]4CNc4cccc(C5CCC(=O)NC5=O)c4)ncc3Cl)ccc2n(C)c1=O (stereo partly drawn) [Compound 260b, 2-((6-((5-chloro-2-((2S)-2-(((3-(2,6-dioxopiperidin-3-yl)phenyl)amino)methyl)pyrrolidin-1-yl)pyrimidin-4-yl)amino)-1-methyl-2-oxo-1,2-dihydroquinolin-3-yl)oxy)-N-methylacetamide] | + (Ymin > 70%)
9 | CNC(=O)COc1cc2cc(Nc3nc(NC[C@H]4CC[C@@H](Nc5cccc(C6CCC(=O)NC6=O)c5)CC4)ncc3Cl)ccc2n(C)c1=O (some centres unmarked) [Compound 262a, 2-((6-((5-chloro-2-((((1s,4s)-4-((3-(2,6-dioxopiperidin-3-yl)phenyl)amino)cyclohexyl)methyl)amino)pyrimidin-4-yl)amino)-1-methyl-2-oxo-1,2-dihydroquinolin-3-yl)oxy)-N-methylacetamide] | ++ (50% < Ymin ≤ 70%)
10 | CNC(=O)COc1cc2cc(Nc3nc(NC[C@H]4CC[C@H](Nc5cccc(C6CCC(=O)NC6=O)c5)CC4)ncc3Cl)ccc2n(C)c1=O (some centres unmarked) [Compound 262b, 2-((6-((5-chloro-2-((((1r,4r)-4-((3-(2,6-dioxopiperidin-3-yl)phenyl)amino)cyclohexyl)methyl)amino)pyrimidin-4-yl)amino)-1-methyl-2-oxo-1,2-dihydroquinolin-3-yl)oxy)-N-methylacetamide] | ++ (50% < Ymin ≤ 70%)

Now from value to molecule:

Row | Ymin (5 hr) | SMILES
11 | ++ (50% < Ymin ≤ 70%) | CNC(=O)COc1cc2cc(Nc3nc(N4CCC[C@H](CCNc5ccc6c(C7CCC(=O)NC7=O)nn(C)c6c5)C4)ncc3Cl)ccc2n(C)c1=O (single isomer, unassigned) [Compound 290a]
12 | +++ (25% < Ymin ≤ 50%) | CNC(=O)COc1cc2cc(Nc3nc(N4CCC[C@@H](CCNc5ccc6c(C7CCC(=O)NC7=O)nn(C)c6c5)C4)ncc3Cl)ccc2n(C)c1=O (single isomer, unassigned) [Compound 290b]
13 | ++ (50% < Ymin ≤ 70%) | CNC(=O)COc1cc2cc(Nc3nc(N4CCC[C@H](CCNc5cccc6c(C7CCC(=O)NC7=O)nn(C)c56)C4)ncc3Cl)ccc2n(C)c1=O (single isomer, unassigned) [Compound 294b]
14 | +++ (25% < Ymin ≤ 50%) | CNC(=O)COc1cc2cc(Nc3nc(N4CCN([C@H](C)C5CCN(c6cccc7c(C8CCC(=O)NC8=O)nn(C)c67)CC5)CC4)ncc3Cl)ccc2n(C)c1=O (single isomer, unassigned) [Compound 307b]
15 | ++ (50% < Ymin ≤ 70%) | CNC(=O)COc1cc2cc(Nc3nc(N4CCC[C@@H](CCNc5cccc6c(C7CCC(=O)NC7=O)nn(C)c56)C4)ncc3Cl)ccc2n(C)c1=O (stereo in doubt) [Compound 294a, rel-2-((6-((5-chloro-2-((3S)-3-(2-((3-(2,6-dioxopiperidin-3-yl)-1-methyl-1H-indazol-7-yl)amino)ethyl)piperidin-1-yl)pyrimidin-4-yl)amino)-1-methyl-2-oxo-1,2-dihydroquinolin-3-yl)oxy)-N-methylacetamide]
16 | ++ (50% < Ymin ≤ 70%) | CNC(=O)COc1cc2cc(Nc3nc(N4CCC[C@H](CNc5ccc(C6CCC(=O)NC6=O)cc5)C4)ncc3Cl)ccc2n(C)c1=O (stereo partly drawn) [Compound 106a, 2-((6-((5-chloro-2-((3R)-3-(((4-(2,6-dioxopiperidin-3-yl)phenyl)amino)methyl)piperidin-1-yl)pyrimidin-4-yl)amino)-1-methyl-2-oxo-1,2-dihydroquinolin-3-yl)oxy)-N-methylacetamide]
17 | ++ (50% < Ymin ≤ 70%) | CNC(=O)COc1cc2cc(Nc3nc(N4CCC[C@@H](CNc5ccc(C6CCC(=O)NC6=O)cc5)C4)ncc3Cl)ccc2n(C)c1=O (stereo partly drawn) [Compound 106b, 2-((6-((5-chloro-2-((3S)-3-(((4-(2,6-dioxopiperidin-3-yl)phenyl)amino)methyl)piperidin-1-yl)pyrimidin-4-yl)amino)-1-methyl-2-oxo-1,2-dihydroquinolin-3-yl)oxy)-N-methylacetamide]
18 | ++ (50% < Ymin ≤ 70%) | CNC(=O)COc1cc2cc(Nc3nc(N4CCC[C@@H](CNc5ccc6c(C7CCC(=O)NC7=O)nn(C)c6c5)C4)ncc3Cl)ccc2n(C)c1=O (stereo partly drawn) [Compound 261a, 2-((6-((5-chloro-2-((3S)-3-(((3-(2,6-dioxopiperidin-3-yl)-1-methyl-1H-indazol-6-yl)amino)methyl)piperidin-1-yl)pyrimidin-4-yl)amino)-1-methyl-2-oxo-1,2-dihydroquinolin-3-yl)oxy)-N-methylacetamide]
19 | +++ (25% < Ymin ≤ 50%) | CNC(=O)COc1cc2cc(Nc3nc(N4CCC[C@H](CNc5ccc6c(C7CCC(=O)NC7=O)nn(C)c6c5)C4)ncc3Cl)ccc2n(C)c1=O (stereo partly drawn) [Compound 261b, 2-((6-((5-chloro-2-((3R)-3-(((3-(2,6-dioxopiperidin-3-yl)-1-methyl-1H-indazol-6-yl)amino)methyl)piperidin-1-yl)pyrimidin-4-yl)amino)-1-methyl-2-oxo-1,2-dihydroquinolin-3-yl)oxy)-N-methylacetamide]
20 | ++ (50% < Ymin ≤ 70%) | CNC(=O)COc1cc2cc(Nc3nc(N4CCC(CCNc5cccc(C6CCC(=O)NC6=O)c5)CC4)ncc3Cl)ccc2n(C)c1=O (centres unmarked) [Compound 263, 2-((6-((5-chloro-2-(4-(2-((3-(2,6-dioxopiperidin-3-yl)phenyl)amino)ethyl)piperidin-1-yl)pyrimidin-4-yl)amino)-1-methyl-2-oxo-1,2-dihydroquinolin-3-yl)oxy)-N-methylacetamide]
